Measurements published in US4477443A, “Tylosin derivatives, their preparation and pharmaceutical compositions containing them” (Zaidan Hojin Biselbutsu Kagaku Kenkyu Kai (Microbial …, priority 1981, dated 1984).
In brackets after ≈: the same amount, converted by molar mass.

What was measured:
Assay in all cases: antimicrobial activity (MIC), Table I
Format in all cases: cell-based
[1] = system: Staph. aureus 193; conditions: Staphylococcus aureus; Staph. aureus 193; read-out: MIC
[2] = system: Coryn. bovis 1810; conditions: Corynebacterium bovis; Coryn. bovis 1810; read-out: MIC
[3] = system: Staph. aureus 209 P; conditions: Staphylococcus aureus; Staph. aureus 209 P; read-out: MIC
[4] = system: Kleb. pneumoniae PCI 602; conditions: Klebsiella pneumoniae, PCI602; Kleb. pneumoniae PCI 602; read-out: MIC
[5] = system: Staph. aureus MS 9861; conditions: Staphylococcus aureus, MS9861; Staph. aureus MS 9861; read-out: MIC
[6] = system: E. coli K-12; conditions: Escherichia coli, K12; E. coli K-12; read-out: MIC
[7] = system: Shigella dysenteriae JS 11910; conditions: JS11910
[8] = system: Sal. enteritidis 1891; conditions: Salmonella enterica; Sal. enteritidis 1891; read-out: MIC
[9] = system: Sarcina lutea PCI 1001; conditions: Micrococcus luteus, PCI1001; Sarcina lutea PCI 1001; read-out: MIC
[10] = system: B. subtilis NRRL B-558; conditions: Bacillus subtilis, NRRLB558; B. subtilis NRRL B-558; read-out: MIC
[11] = system: E. coli K-12 R-5; conditions: Escherichia coli, K12R5; E. coli K-12 R-5; read-out: MIC
[12] = system: E. coli NIHJ; conditions: Escherichia coli; E. coli NIHJ; read-out: MIC

SMILES	MIC [1] [mg/L]	MIC [2] [mg/L]	MIC [3] [mg/L]	MIC [4] [mg/L]	MIC [5] [mg/L]	MIC [6] [mg/L]	MIC [7] [mg/L]	MIC [8] [mg/L]	MIC [9] [mg/L]	MIC [10] [mg/L]	MIC [11] [mg/L]	MIC [12] [mg/L]
CCC1OC(=O)CC(O)C(C)C(OC2OC(C)C(O)C(N(C)C)C2O)C(CC=O)CC(C)C(=O)C=CC(C)=CC1CN(C)Cc1ccccc1 (stereo not drawn) [Example 25, 23-deoxy-23-(N-methylbenzylamino)mycaminosyl tylonolide]	0.2 (≈ 0.285 µM)	< 0.2	< 0.2	0.39 (≈ 0.556 µM)	0.2 (≈ 0.285 µM)	3.12 (≈ 4.45 µM)	3.12 (≈ 4.45 µM)	1.56 (≈ 2.23 µM)	0.39 (≈ 0.556 µM)	3.12 (≈ 4.45 µM)	6.25 (≈ 8.92 µM)	1.56 (≈ 2.23 µM)
CCC1OC(=O)CC(O)C(C)C(OC2OC(C)C(O)C(N(C)C)C2O)C(CC=O)CC(C)C(=O)C=CC(C)=CC1CN(C)CCc1ccccc1 (stereo not drawn) [Example 26, 23-deoxy-23-(N-methylphenethylamino)mycaminosyl tylonolide]	0.2 (≈ 0.28 µM)	< 0.2	< 0.2	0.78 (≈ 1.09 µM)	12.5 (≈ 17.5 µM)	12.5 (≈ 17.5 µM)	3.12 (≈ 4.36 µM)	3.12 (≈ 4.36 µM)	< 0.2	50 (≈ 69.9 µM)	12.5 (≈ 17.5 µM)	3.12 (≈ 4.36 µM)
CCC1OC(=O)CC(O)C(C)C(OC2OC(C)C(O)C(N(C)C)C2O)C(CC=O)CC(C)C(=O)C=CC(C)=CC1CN(C)C1CCCCC1 (stereo not drawn) [Example 27, 23-deoxy-23-(N-methylcyclohexylamino)mycaminosyl tylonolide]	0.78 (≈ 1.13 µM)	< 0.2	< 0.2	< 0.2	3.12 (≈ 4.5 µM)	3.12 (≈ 4.5 µM)	< 0.2	< 0.2	< 0.2	< 0.2	3.12 (≈ 4.5 µM)	0.78 (≈ 1.13 µM)
CCC1OC(=O)CC(O)C(C)C(OC2OC(C)CC(N(C)C)C2O)C(CC=O)CC(C)C(=O)C=CC(C)=CC1CN1CCC(=O)CC1 (stereo not drawn) [Example 28, 23,4'-dideoxy-23-(4-pipridone)mycaminosyl tylonolide]	< 0.2	0.39 (≈ 0.588 µM)	< 0.2	1.56 (≈ 2.35 µM)	0.39 (≈ 0.588 µM)	6.25 (≈ 9.43 µM)	0.78 (≈ 1.18 µM)	6.25 (≈ 9.43 µM)	< 0.2	< 0.2	6.25 (≈ 9.43 µM)	3.12 (≈ 4.71 µM)
CCC1OC(=O)CC(O)C(C)C(OC2OC(C)CC(N(C)C)C2O)C(CC=O)CC(C)C(=O)C=CC(C)=CC1CN1CCOCC1 (stereo not drawn) [Example 29, 23,4'-dideoxy-23-morpholinomycaminosyl tylonolide]	0.39 (≈ 0.599 µM)	< 0.2	0.39 (≈ 0.599 µM)	3.12 (≈ 4.79 µM)	0.78 (≈ 1.2 µM)	25 (≈ 38.4 µM)	0.39 (≈ 0.599 µM)	12.5 (≈ 19.2 µM)	< 0.2	0.39 (≈ 0.599 µM)	12.5 (≈ 19.2 µM)	3.12 (≈ 4.79 µM)
CCC1OC(=O)CC(O)C(C)C(OC2OC(C)CC(N(C)C)C2O)C(CC=O)CC(C)C(=O)C=CC(C)=CC1CN1CCCCC1CO (stereo not drawn) [Example 31, 23,4'-dideoxy-23-[2-(hydroxymethyl)piperidino]mycaminosyl tylonolide]	0.39 (≈ 0.574 µM)	0.39 (≈ 0.574 µM)	< 0.2	0.78 (≈ 1.15 µM)	0.39 (≈ 0.574 µM)	0.78 (≈ 1.15 µM)	0.78 (≈ 1.15 µM)	0.39 (≈ 0.574 µM)	< 0.2	0.39 (≈ 0.574 µM)	0.78 (≈ 1.15 µM)	0.39 (≈ 0.574 µM)
CCC1OC(=O)CC(O)C(C)C(OC2OC(C)CC(N(C)C)C2O)C(CC=O)CC(C)C(=O)C=CC(C)=CC1CN1CCN(C)CC1 (stereo not drawn) [Example 32, 23,4'-dideoxy-23-(4-methylpiperazin-1-yl)mycaminosyl tylonolide]	1.56 (≈ 2.35 µM)	6.25 (≈ 9.41 µM)	0.78 (≈ 1.17 µM)	25 (≈ 37.7 µM)	6.25 (≈ 9.41 µM)	25 (≈ 37.7 µM)	0.2 (≈ 0.301 µM)	6.25 (≈ 9.41 µM)	< 0.2	1.56 (≈ 2.35 µM)	6.25 (≈ 9.41 µM)	3.12 (≈ 4.7 µM)
